PMC7953584, “An Experimental Study on [^125I]I-pHLIP (Var7) for SPECT/CT Imaging of an MDA-MB-231 Triple-Negative Breast Cancer Mouse Model by Targeting the Tumor Microenvironment” (Molecular Imaging, 2021)
Like-named read-outs stand apart in the source and are kept apart here. Residues, ends and D or L forms follow the SMILES beside them.

Columns and labels:
[1] = In vitro stability in mouse serum at 37°C (radiochemical purity); format: in vitro ADME; settings: 50 μL probe + 100 μL serum, paper chromatography, mean ± SD
Method: The purity of [^125I]I-pHLIP (Var7) was determined by paper chromatography. Normal saline was used as the developing agent, and Xinhua Grade 1 chromatography paper was used as the stationary phase. An appropriate amount of [^125I]I-pHLIP (Var7) eluent was aspirated by a capillary pipette and spotted at the origin of the chromatographic filter paper. After drying, the paper was placed vertically into a test tube containing the developing agent; the unfolded chromatographic filter paper was removed, air dried, and cut at intervals of 1 cm. The radioactivity count was measured segment by segment to calculate the radiochemical purity.
The purified [^125I]I-pHLIP (Var7) was placed at 4°C, at room temperature (25°C) in PBS buffer, and at 37°C in mouse serum. The radiochemical purity at different time points was measured, and the stability was determined. • Two hundred microliters of purified [^125I]I-pHLIP (Var7) solution was placed at 4°C and at room temperature in PBS buffer. Radiochemical purity was determined immediately after purification and at 1, 2, 4, 8, and 24 h after purification • Fifty microliters of purified [^125I]I-pHLIP (Var7) solution was mixed with 100 μL of mouse serum and placed in a 37°C water bath. Radiochemical purity was determined immediately after mixing and at 1, 2, 4, 8, and 24 h after mixing

[2] = system: MDA-MB-231 tumor-bearing mice; experiment: Small-animal SPECT/CT imaging; format: in vivo, BALB/c nude mice; settings: 1 and 2 h after injection; 3.7 MBq/200 μL tail vein; thyroid blocked with 0.1% KI
Method: (§1) A mouse model bearing a human breast cancer cell line, MDA-MB-231, was established. MDA-MB-231 cells were cultured using the conventional method. Cells were collected at the logarithmic growth phase and washed once with PBS. The cells were then diluted to prepare suspensions at a concentration of approximately 1 × 10^6 cells/mL, which were temporarily stored in an ice box. Female 4-week-old BALB/c nude mice (16-20 g) were selected. MDA-MB-231 cells were inoculated subcutaneously using a disposable insulin syringe inserted into the right lateral thighs of the nude mice. The number of inoculated cells in each nude mouse was approximately 0.1 mL. The nude mice were raised under specific pathogen-free (SPF) conditions.
Imaging was started when the diameter of the tumor grew to 0.8-1.0 cm. Three days before imaging, 3 nude mice began to drink 0.1% KI solution to block the thyroid gland until the end of the experiment. • The machine was calibrated daily • Anesthesia Induction. […] Imaging settings for the SPECT/CT and reconstruction are as follows: the time per frame was 10 min, voxel size was 0.8 mm, number of subsets was 32, and number of iterations was 15 • The injection time, injection dose, and residual dose were recorded according to the tables in the experiment

[3] = Biodistribution in tumor-bearing nude mice; format: in vivo; settings: female, BALB/c nude, mouse, iv, 1480 kBq/200 uL, total radioactivity, ~1480 kBq/200 μL tail vein, mean ± SD, n = 3; for tissue uptake at 0.5 h: 0.5 h after injection; for tissue uptake at 1 h: 1 h after injection; for tissue uptake at 2 h: 2 h after injection; for tissue uptake at 4 h: 4 h after injection; for tissue uptake at 8 h: 8 h after injection
Method: as §1
Biodistribution experiments were conducted when the tumor diameter was 0.8-1.0 cm. Purified [^125I]I-pHLIP (Var7) was diluted with PBS, and a total of 15 tumor-bearing nude mice with no significant differences in tumor size were randomly divided into five cohorts. Nude mice in each cohort were injected with [^125I]I-pHLIP (Var7) at approximately 1480 kBq/200 μL through the tail vein. At 0.5, 1, 2, 4, and 8 h after injection, blood was collected from the orbital sinus. The mice were sacrificed, and tissues and organs, including the heart, liver, spleen, lung, kidney, pancreas, stomach, small intestine, bladder, thyroid, brain, bone, muscle, and tumors, were collected and weighed. The radioactive count was measured, and the results were converted to %ID/g.

[4] = bladder, read-out: distribution in bladder
[5] = blood, read-out: distribution in blood
[6] = bone, read-out: distribution in bone
[7] = brain, read-out: distribution in brain
[8] = heart, read-out: distribution in heart
[9] = kidney, read-out: distribution in kidney
[10] = liver, read-out: distribution in liver
[11] = lung, read-out: distribution in lung
[12] = muscle, read-out: distribution in muscle
[13] = pancreas, read-out: distribution in pancreas
[14] = small intestine, read-out: distribution in small intestine
[15] = spleen, read-out: distribution in spleen
[16] = stomach, read-out: distribution in stomach
[17] = thyroid, read-out: distribution in thyroid
[18] = tumor (MDA-MB-231), MDA-MB-231 tumor, read-out: distribution in tumor

- probe stability in serum (radiochemical purity) ([1]; 1 h): 97.8 ± 1.9%
- probe stability in serum (radiochemical purity) ([1]; 2 h): 96.8 ± 1.0%
- probe stability in serum (radiochemical purity) ([1]; 4 h): 94.5 ± 1.1%
- probe stability in serum (radiochemical purity) ([1]; 8 h): 91.3 ± 2.6%
- tissue uptake at 0.5 h [3, 4]: 3.8 ± 1.1 %ID/g
- tissue uptake at 1 h [3, 4]: 4.3 ± 1.1 %ID/g
- tissue uptake at 2 h [3, 4]: 2.1 ± 0.9 %ID/g
- tissue uptake at 4 h [3, 4]: 1 ± 0.6 %ID/g
- tissue uptake at 8 h [3, 4]: 0.5 ± 0.2 %ID/g
- tissue uptake at 0.5 h [3, 5]: 12 ± 1.5 %ID/g
- tissue uptake at 1 h [3, 5]: 6.5 ± 1.5 %ID/g
- tissue uptake at 2 h [3, 5]: 2.8 ± 0.6 %ID/g
- tissue uptake at 4 h [3, 5]: 1.2 ± 0.5 %ID/g
- tissue uptake at 8 h [3, 5]: 0.5 ± 0.1 %ID/g
- tissue uptake at 0.5 h [3, 6]: 2.9 ± 0.3 %ID/g
- tissue uptake at 1 h [3, 6]: 2.8 ± 0.1 %ID/g
- tissue uptake at 2 h [3, 6]: 1.5 ± 0.5 %ID/g
- tissue uptake at 4 h [3, 6]: 0.7 ± 0.2 %ID/g
- tissue uptake at 8 h [3, 6]: 0.2 ± 0.1 %ID/g
- tissue uptake at 0.5 h [3, 7]: 0.6 ± 0.1 %ID/g
- tissue uptake at 1 h [3, 7]: 0.5 ± 0.1 %ID/g
- tissue uptake at 2 h [3, 7]: 0.3 ± 0.1 %ID/g
- tissue uptake at 4 h [3, 7]: 0.1 ± 0.1 %ID/g
- tissue uptake at 8 h [3, 7]: 0.1 ± 0.1 %ID/g
- tissue uptake at 0.5 h [3, 8]: 4.1 ± 0.5 %ID/g
- tissue uptake at 1 h [3, 8]: 3.9 ± 0.7 %ID/g
- tissue uptake at 2 h [3, 8]: 2 ± 0.4 %ID/g
- tissue uptake at 4 h [3, 8]: 1.1 ± 1.1 %ID/g
- tissue uptake at 8 h [3, 8]: 0.5 ± 0.3 %ID/g
- tissue uptake at 0.5 h [3, 9]: 4.2 ± 0.6 %ID/g
- tissue uptake at 1 h [3, 9]: 5.1 ± 1.1 %ID/g
- tissue uptake at 2 h [3, 9]: 2.3 ± 0.8 %ID/g
- tissue uptake at 4 h [3, 9]: 1.2 ± 0.4 %ID/g
- tissue uptake at 8 h [3, 9]: 0.5 ± 0.2 %ID/g
- tissue uptake at 0.5 h [3, 10]: 13.9 ± 2.7 %ID/g
- tissue uptake at 1 h [3, 10]: 8 ± 1.9 %ID/g
- tissue uptake at 2 h [3, 10]: 4 ± 0.6 %ID/g
- tissue uptake at 4 h [3, 10]: 1.8 ± 0.2 %ID/g
- tissue uptake at 8 h [3, 10]: 0.7 ± 0.2 %ID/g
- tissue uptake at 0.5 h [3, 11]: 3.4 ± 1.2 %ID/g
- tissue uptake at 1 h [3, 11]: 2.5 ± 1 %ID/g
- tissue uptake at 2 h [3, 11]: 1.2 ± 0.5 %ID/g
- tissue uptake at 4 h [3, 11]: 0.5 ± 0.3 %ID/g
- tissue uptake at 8 h [3, 11]: 0.2 ± 0.1 %ID/g
- tissue uptake at 0.5 h [3, 12]: 1.7 ± 0.6 %ID/g
- tissue uptake at 1 h [3, 12]: 1.4 ± 0.8 %ID/g
- tissue uptake at 2 h [3, 12]: 0.6 ± 0.2 %ID/g
- tissue uptake at 4 h [3, 12]: 0.2 ± 0.1 %ID/g
- tissue uptake at 8 h [3, 12]: 0.1 ± 0.1 %ID/g
- tissue uptake at 0.5 h [3, 13]: 3.3 ± 0.8 %ID/g
- tissue uptake at 1 h [3, 13]: 4.1 ± 1.2 %ID/g
- tissue uptake at 2 h [3, 13]: 2.1 ± 0.6 %ID/g
- tissue uptake at 4 h [3, 13]: 0.9 ± 0.3 %ID/g
- tissue uptake at 8 h [3, 13]: 0.3 ± 0.1 %ID/g
- tissue uptake at 0.5 h [3, 14]: 3.3 ± 1.5 %ID/g
- tissue uptake at 1 h [3, 14]: 4.2 ± 0.6 %ID/g
- tissue uptake at 2 h [3, 14]: 2.8 ± 1 %ID/g
- tissue uptake at 4 h [3, 14]: 1.3 ± 0.5 %ID/g
- tissue uptake at 8 h [3, 14]: 0.4 ± 0.1 %ID/g
- tissue uptake at 0.5 h [3, 15]: 3 ± 1.1 %ID/g
- tissue uptake at 1 h [3, 15]: 3 ± 0.6 %ID/g
- tissue uptake at 2 h [3, 15]: 1.4 ± 0.4 %ID/g
- tissue uptake at 4 h [3, 15]: 0.7 ± 0.2 %ID/g
- tissue uptake at 8 h [3, 15]: 0.3 ± 0.1 %ID/g
- tissue uptake at 0.5 h [3, 16]: 4.7 ± 1.2 %ID/g
- tissue uptake at 1 h [3, 16]: 5.1 ± 1.2 %ID/g
- tissue uptake at 2 h [3, 16]: 4.3 ± 1 %ID/g
- tissue uptake at 4 h [3, 16]: 2.2 ± 0.8 %ID/g
- tissue uptake at 8 h [3, 16]: 0.7 ± 0.2 %ID/g
- tissue uptake at 0.5 h [3, 17]: 4.3 ± 1.7 %ID/g
- tissue uptake at 1 h [3, 17]: 5.6 ± 1.4 %ID/g
- tissue uptake at 2 h [3, 17]: 3.4 ± 1 %ID/g
- tissue uptake at 4 h [3, 17]: 1.6 ± 0.8 %ID/g
- tissue uptake at 8 h [3, 17]: 0.8 ± 0.4 %ID/g
- tissue uptake at 0.5 h [3, 18]: 3.6 ± 0.5 %ID/g
- tissue uptake at 1 h [3, 18]: 6.9 ± 0.4 %ID/g
- tissue uptake at 2 h [3, 18]: 3.6 ± 0.7 %ID/g
- tissue uptake at 4 h [3, 18]: 2 ± 0.6 %ID/g
- tissue uptake at 8 h [3, 18]: 1 ± 0.4 %ID/g
SMILES: CC(C)C[C@H](NC(=O)[C@H](CCC(=O)O)NC(=O)[C@H](CC(C)C)NC(=O)[C@H](CC(C)C)NC(=O)[C@H](CC(C)C)NC(=O)[C@@H](NC(=O)[C@H](CCC(=O)O)NC(=O)[C@@H](NC(=O)[C@@H]1CCCN1C(=O)[C@H](Cc1ccccc1)NC(=O)[C@H](CC(C)C)NC(=O)[C@H](Cc1c[nH]c2ccccc12)NC(=O)[C@H](CCC(=O)O)NC(=O)[C@H](CC(C)C)NC(=O)[C@H](Cc1ccc(O)c(I)c1)NC(=O)[C@H](CCCNC(=N)N)NC(=O)[C@H](C)NC(=O)[C@H](Cc1c[nH]c2ccccc12)NC(=O)[C@@H]1CCCN1C(=O)[C@H](CC(N)=O)NC(=O)[C@H](CCC(N)=O)NC(=O)[C@H](CCC(=O)O)NC(=O)[C@H](CCC(=O)O)NC(=O)[C@H](C)N)[C@@H](C)O)[C@@H](C)O)C(N)=O [[^125I]I-pHLIP (Var7)] (HELM PEPTIDE1{A.E.E.Q.N.P.W.A.R.[O=C([C@H](Cc1ccc(O)c(I)c1)N[*:1])[*:2]].L.E.W.L.F.P.T.E.T.L.L.L.E.L.[am]}$$$$V2.0)
- tumor visibility on SPECT/CT [2]: clearly visible tumors
